According to ChEMBL document CHEMBL1129199, “Trifluoromethyl alcohol and ketone inhibitors of metallo--lactamases” (Bioorg Med Chem Lett, 1996):

Experiments:
[1] = Compound was evaluated for inhibition of metallo beta lactamase from bacillus cereus 569H
[2] = Compound was evaluated for inhibition of metallo beta lactamase from Pseudomonas aeruginosa 101
[3] = Compound was evaluated for inhibition of metallo beta lactamase from xanthomonas maltophilia ULA-511; parameters: species or system Stenotrophomonas maltophilia
[4] = test system: Aeromonas hydrophila; experiment: Compound was evaluated for kinetic data for the inhibition of metallo beta lactamase from Aeromonas hydrophilia AE036.
[5] = Ratio of K+2/K of the compound
[6] = Compound was evaluated for inhibition of metallo beta lactamase from Aeromonas hydrophilia AE036.; parameters: species or system Aeromonas hydrophila

Structure (SMILES)	Ki [1] [µM]	Ki [2] [µM]	Ki [3] [µM]	k+2 [4] [s⁻¹]	k+2/k [5] [M⁻¹ s⁻¹]	Ki [6] [µM]
C[C@H](NC(=O)COc1ccccc1)[C@@H](O)C(F)(F)F	3000	400	> 5000			
O=C(COc1ccccc1)N[C@@H](Cc1ccccc1)[C@@H](O)C(F)(F)F	1000	900	> 5000	4.3	2.3	19
C[C@@H](NC(=O)COc1ccccc1)[C@@H](O)C(F)(F)F	700	400	35	1.1	5.25	217
C[C@@H](NC(=O)COc1ccccc1)C(=O)C(F)(F)F	700	500	3	1	9.1	11
O=C(COc1ccccc1)N[C@@H](Cc1ccccc1)C(=O)C(F)(F)F	500	530	15	4.3	7.2	6
C[C@H](NC(=O)COc1ccccc1)C(=O)C(F)(F)F	300	300	1.5	4	9.1	44
O=C(COc1ccccc1)N[C@H](Cc1ccccc1)C(=O)C(F)(F)F	1000					
O=C(COc1ccccc1)N[C@H](Cc1ccccc1)[C@@H](O)C(F)(F)F	30	60	> 5000	3.9	1.9	20
